In US12133855B2, “Lipid-like nanocomplexes and uses thereof” (Trustees of Tufts College, priority 2018, dated 2024):

Assays:
HeLa cells [1] = assay: GFP mRNA delivery (GFP+ cells); assay type: cell-based; details: LNP/mRNA=10/1; [mRNA]=0.86 μg mL^−1; 24 h exposure
From the text: Messenger RNA delivery has great potentials for cancer therapy, protein replacement therapy and neurological disorder treatments.^42 The intracellular delivery of mRNA using OCholB LNPs was studied using GFP mRNA and different cell lines (HeLa, B16F10, HEK-293, NIH/3T3 and Jurkat). The weight ratio of LNP/mRNA was optimized at first using HeLa cells. […] The weight ratio of LNP/mRNA=10/1 was then chose for the following mRNA delivery studies. […] Then the intracellular delivery efficiencies of all fully substituted OCholB LNPs were tested against HeLa cells, and Lpf2k and naked GFP mRNA were used as controls (LNP/mRNA=10/1; [mRNA]=0.86 μg mL^−1; 24 h exposure). […] As to the OCholB LNPs, 75-OCholB (62.0% of GFP^+ cells), 76-OCholB (79.8%), 77-OCholB (73.5%), 78-OCholB (67.1%), 80-OCholB (55.6%), 81-OCholB (51.6%) and 304-OCholB (52.1%) are all determined to be effective. Typical fluorescent images of mRNA/LNPs (mRNA/75-OCholB, mRNA/76-OCholB and mRNA/77-OCholB) treated HeLa cells are shown in FIG. 14C. Comparing to untreated HeLa cells, strong green fluorescent signals were recoded from nanoparticles incubated cells, which is consistent with the flow cytometry data as shown in FIG. 14D. Meanwhile, both 87-OCholB (6.1%) and 90-OCholB (2.5%) are found to be inefficient for GFP mRNA delivery into HeLa cells, which is consistent with the internalization studies using NR (FIG. 12C) and (−30)GFP-Cre protein (FIG. 12F) as the fluorescent reporters.

[2] = Thiol-triggered size variation of OCholB LNPs (DTT, cysteine; DLS); assay type: physicochemical; details: for increase in averaged hydrodynamic diameter: 24 h; for decrease in size: 20 μM L-cysteine, 6 h of incubation; for increase of relative size: first 2 h
From the text: The thiol-trigged degradation and dissociation of the OCholB LNPs were studied by time-dependent DLS measurements and TEM observation. […] The disruption of the vesicle structure is considered to be resulted from the thiol-exchange and disulfide bond cleavage reactions of OCholB lipidoids. We next investigated whether the thiol-containing molecules (e.g. albumin, cysteine, homocysteine, cysteinylglycine, etc.) in the serum may induce the structural disintegration of these disulfide bond-containing LNPs. The stabilities of LNPs in the presence of 20 μM of L-cysteine (Cys), which mimics the free thiols on the small- and macromolecules presented in the serum, were examined. […] While the degrees of size changes vary between lipidoids with different amine head groups, all lipidoids were more responsive to DTT (modeling intracellular conditions) than to Cysteine (modeling conditions in the blood serum).

HeLa-DsRed cells = assay: Cre mRNA delivery (DsRed+ cells); assay type: cell-based; details: lipidoid/mRNA=10/1, [mRNA]=0.86 μg mL^−1, 24 h
Protocol: Next, the possibility of using OCholB LNPs to deliver mRNA for genome editing (Cre-loxP and CRISPR/Cas9 systems) purposes was examined. First, Cre mRNA was complexed with OCholB LNPs and tested against HeLa-DsRed cells. The HeLa-DsRed cells express red fluorescent protein, DsRed, only upon Cre protein-mediated recombination. After 24 h of incubation with mRNA/LNPs (lipidoid/mRNA=10/1; [mRNA]=0.86 μg mL^−1), the DsRed^+ cell portions were determined by flow cytometry. […] Then the Cas9 mRNA that expresses a version of Streptococcus pyogenes SF370 Cas9 protein with an N and C terminal nuclear localization signal (NLS) were loaded into LNPs, along with single-guide RNA (sgRNA) that targets a sequence on GFP gene. GFP-HEK cells which steadily express GFP proteins were used a cell model in this case. GFP-cells, indicating a successful Cas9-mediated knockdown of GFP expression, were analyzed using flow cytometry. […] This was also found to be applicable to protein delivery in our previous studies.
In this context, two strategies were tested, i.e., synthesizing new OCholB-tailed lipidoids with single tail rather than full substitution, and adding helper lipids (phospholipids) into fully substituted OCholB LNPs. Single-tailed lipidoids, 75-OCholB-1, 76-OCholB-1 and […] at first following similar protocols as described before and characterized by ESI-MS ([75-OCholB-1+H]^+, 736.55; [76-OCholB-1+H]^+, 734.64; [77-OCholB-1+H]^+, 748.73). Nanoparticles were than fabricated using the same sonication/vortex procedures and the obtained LNPs were measured by DLS (75-OCholB-1, <Dh>=302.6 nm, μ2/I^2=0.30; 76-OCholB-1, <Dh>=294.5 nm, μ2/I^2=0.30; 77-OCholB-1, <Dh>=254.2 nm, μ2/I^2=0.33). […] 69.4%, 72.5% and 68.9% of GFP^+ cells were determined for mRNA/75-OCholB-1, mRNA/76-OCholB-1 and mRNA/77-OCholB-1 treated HeLa cells, respectively. Cre mRNA could also be efficiently delivered into HeLa-DsRed cells, as 87.3% (mRNA/75-OCholB-1), 82.8% (mRNA/76-OCholB-1) and 81.5% (mRNA/77-OCholB-1) of cells were determined to be DsRed^+ after 24 h of exposure (FIG. 14G). […]

HeLa cells [3] = assay: MTT cytotoxicity of mRNA-loaded nanoparticles; assay type: cell-based; details: for cell morphology (bright field images): 24 h of exposure; for cell viability: GFP mRNA loaded, lipidoid/mRNA=10/1, [mRNA]=0.86 μg mL^−1, 24 h
Protocol: All experiments were performed in quadruplicate.
Next, the MTT assay was conducted to examine the cytotoxicity of mRNA-loaded nanoparticles against HeLa cells.

SMILES | GFP^+ cells (HeLa cells [1]) | increase in averaged hydrodynamic diameter ([2]; 10 mM DTT) | decrease in size [2] | increase in size ([2]; 10 mM DTT, 6 h) | increase of relative size ([2]; 10 mM DTT) | DsRed^+ cells (HeLa-DsRed cells) | cell morphology (bright field images) (HeLa cells [3]) | cell viability (HeLa cells [3])
CC(C)CCCC(C)C1CCC2C3CC=C4CC(OC(=O)NCCSSCCOC(=O)CCN(C)CCN(CCN(C)CCC(=O)OCCSSCCNC(=O)OC5CCC6(C)C(=CCC7C6CCC6(C)C(C(C)CCCC(C)C)CCC76)C5)CCN(C)CCC(=O)OCCSSCCNC(=O)OC5CCC6(C)C(=CCC7C6CCC6(C)C(C(C)CCCC(C)C)CCC76)C5)CCC4(C)C3CCC12C (centres unmarked) [Lipidoid 304-OCholB] | 52.1% | 3849.6% |  |  |  |  |  | 
CC(C)CCCC(C)C1CCC2C3CC=C4CC(OC(=O)NCCSSCCOC(=O)CCN(CCCN(C)C)CCC(=O)OCCSSCCNC(=O)OC5CCC6(C)C(=CCC7C6CCC6(C)C(C(C)CCCC(C)C)CCC76)C5)CCC4(C)C3CCC12C (centres unmarked) [Lipidoid 80-OCholB] | 55.6% |  |  |  |  |  |  | 
CCN(CC)CCN(CCC(=O)OCCSSCCNC(=O)OC1CCC2(C)C(=CCC3C2CCC2(C)C(C(C)CCCC(C)C)CCC32)C1)CCC(=O)OCCSSCCNC(=O)OC1CCC2(C)C(=CCC3C2CCC2(C)C(C(C)CCCC(C)C)CCC32)C1 (centres unmarked) [Lipidoid 75-OCholB] | 62.0% | 2872.4% | 12.2% | 1315.7% | 566.4% | 67.2% | no obvious variations | 84.7%
CC(C)CCCC(C)C1CCC2C3CC=C4CC(OC(=O)NCCSSCCOC(=O)CCN(CCC(=O)OCCSSCCNC(=O)OC5CCC6(C)C(=CCC7C6CCC6(C)C(C(C)CCCC(C)C)CCC76)C5)CCC5CCCN5C)CCC4(C)C3CCC12C (centres unmarked) [Lipidoid 77-OCholB] | 73.5% |  | 7.2% |  | 1591.4% | 72.8% | no obvious variations | 100.1%
CC(C)CCCC(C)C1CCC2C3CC=C4CC(OC(=O)NCCSSCCOC(=O)CCN(CCC(=O)OCCSSCCNC(=O)OC5CCC6(C)C(=CCC7C6CCC6(C)C(C(C)CCCC(C)C)CCC76)C5)CCN(C)C)CCC4(C)C3CCC12C (centres unmarked) [Lipidoid 78-OCholB] | 67.1% | 4642.8% |  |  |  |  |  | 
CC(C)CCCC(C)C1CCC2C3CC=C4CC(OC(=O)NCCSSCCOC(=O)CCN(CCC(=O)OCCSSCCNC(=O)OC5CCC6(C)C(=CCC7C6CCC6(C)C(C(C)CCCC(C)C)CCC76)C5)CCN5CCCC5)CCC4(C)C3CCC12C (centres unmarked) [Lipidoid 76-OCholB] | 79.8% |  | 14.6% |  | 498.5% | 48.7% | no obvious variations | 94.5%
CCN(CC)CCCN(CCC(=O)OCCSSCCNC(=O)OC1CCC2(C)C(=CCC3C2CCC2(C)C(C(C)CCCC(C)C)CCC32)C1)CCC(=O)OCCSSCCNC(=O)OC1CCC2(C)C(=CCC3C2CCC2(C)C(C(C)CCCC(C)C)CCC32)C1 (centres unmarked) [Lipidoid 81-OCholB] | 51.6% |  |  |  |  |  |  | 
